Assay results published in patent US9051325B2, “Bicyclic [5,6] imidazo pyrimodone compounds for use in the treatment of diseases or conditions mediated by Lp-PLA2” (GlaxoSmithKline Intellectual Property Development Limited, priority 2013, dated 2015).
Read-outs that look alike come from different tables or passages of the source.

What was measured:
[1] = target: T1, recombinant human Lp-PLA2 (Homo sapiens, UniProt Q13093); experiment: Recombinant human Lp-PLA2 assay (rhLp-PLA2, PED6 assay); format: biochemical
T1 sequence (Q13093 22-441): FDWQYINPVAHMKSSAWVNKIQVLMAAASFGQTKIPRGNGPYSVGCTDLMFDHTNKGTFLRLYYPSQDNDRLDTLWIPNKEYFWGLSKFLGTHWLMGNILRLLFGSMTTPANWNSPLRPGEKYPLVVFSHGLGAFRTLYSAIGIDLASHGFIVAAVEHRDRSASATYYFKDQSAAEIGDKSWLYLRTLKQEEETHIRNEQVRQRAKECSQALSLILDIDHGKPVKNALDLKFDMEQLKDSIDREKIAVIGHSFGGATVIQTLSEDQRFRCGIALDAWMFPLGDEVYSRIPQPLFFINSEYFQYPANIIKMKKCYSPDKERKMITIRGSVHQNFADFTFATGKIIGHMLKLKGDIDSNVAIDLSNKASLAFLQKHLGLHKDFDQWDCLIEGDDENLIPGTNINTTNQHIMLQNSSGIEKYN
Summary of the method: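 Compounds were preincubated 30 min with 4 nM […] rhLp-PLA2 in 50 mM HEPES pH 7.4, 150 mM NaCl, 1 mM CHAPS, then PED6 substrate […] was added for 20 min at room temperature in the dark. Fluorescence was read at ex 480/em 540, and pIC50 was fitted from 1:3 serial dilutions.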

Lp-PLA2 in human plasma = target: T2, Lp-PLA2 in human plasma (Homo sapiens, UniProt Q13093); experiment: Lp-PLA2 human plasma assay (Thio-PAF assay); format: biochemical; details: pooled human plasma; lower bounds; read-out: pIC50 values in the thio-PAF assay (converted)
T2 construct: from tissue; host or cells: pooled human plasma
T2 sequence (Q13093 22-441): T1 sequence (Q13093 22-441)
Summary of the method: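 Pooled human plasma preincubated 30 min with compounds, then given 2-thio-PAF substrate with CPM and NEM in 50 mM HEPES pH 7.4, 150 mM NaCl, 1 mM CHAPS. Reaction quenched after 2 min with TFA and read by fluorescence (ex 380/em 485) after 40 min at room temperature; pIC50 from curve fit.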

[2] = lower bounds, read-out: pIC50 values in the PED6 assay (converted)
[3] = read-out: rhLp-PLA2 (PED6 assay) (pIC50) (converted)

| SMILES | IC50 [1, 2] | IC50 (Lp-PLA2 in human plasma) | IC50 [1, 3] |
| --- | --- | --- | --- |
| CC1(C)Cn2c(cc(OCc3cc(F)c(F)c(F)c3)nc2=O)N1 [Example E50, 2,2-dimethyl-7-((3,4,5-trifluorobenzyl)oxy)-2,3-dihydroimidazo[1,2-c]pyrimidin-5(1H)-one] | ≤ 1 nM | ≤ 100 nM | – |
| CC1Cn2c(cc(OCc3ccc(Oc4ccc(C#N)c(C(F)(F)F)c4)c(F)c3)nc2=O)N1C (stereo not shown) [Example E3, 4-(4-(((1,2-dimethyl-5-oxo-1,2,3,5-tetrahydroimidazo[1,2-c]pyrimidin-7-yl)oxy)methyl)-2-fluorophenoxy)-2-(trifluoromethyl)benzonitrile] | ≤ 1 nM | ≤ 100 nM | – |
| C[C@@H]1Cn2c(cc(OCc3ccc(Oc4ccnc(C(F)(F)F)c4)c(F)c3)nc2=O)N1C [Example E51, (R)-7-((3-fluoro-4-((2-(trifluoromethyl)pyridin-4-yl)oxy)benzyl)oxy)-1,2-dimethyl-2,3-dihydroimidazo[1,2-c]pyrimidin-5(1H)-one] | ≤ 1 nM | ≤ 100 nM | – |
| C[C@H]1Cn2c(cc(OCc3cc(F)c(Oc4ccnc(C(F)(F)F)c4)c(F)c3)nc2=O)N1 [Example E131, (S)-7-((3,5-difluoro-4-((2-(trifluoromethyl)pyridin-4-yl)oxy)benzyl)oxy)-2-methyl-2,3-dihydroimidazo[1,2-c]pyrimidin-5(1H)-one] | ≤ 1 nM | ≤ 100 nM | – |
| CC1(C)Cn2c(cc(OCc3ccc(Oc4cnc(C(F)(F)F)nc4)c(F)c3)nc2=O)N1 [Example E101, 7-((3-fluoro-4-((2-(trifluoromethyl)pyrimidin-5-yl)oxy)benzyl)oxy)-2,2-dimethyl-2,3-dihydroimidazo[1,2-c]pyrimidin-5(1H)-one] | ≤ 1 nM | ≤ 100 nM | – |
| CC1(C)Cn2c(cc(OCc3cc(F)c(Oc4ccc(F)nc4)c(F)c3)nc2=O)N1 [Example E134, 7-((3,5-difluoro-4-((6-fluoropyridin-3-yl)oxy)benzyl)oxy)-2,2-dimethyl-2,3-dihydroimidazo[1,2-c]pyrimidin-5(1H)-one] | ≤ 1 nM | ≤ 100 nM | – |
| CC1(C)Cn2c(cc(OCc3cc(F)c(Oc4ccnc(C(F)(F)F)c4)c(F)c3)nc2=O)N1 [Example E127, 7-((3,5-difluoro-4-((2-(trifluoromethyl)pyridin-4-yl)oxy)benzyl)oxy)-2,2-dimethyl-2,3-dihydroimidazo[1,2-c]pyrimidin-5(1H)-one] | ≤ 1 nM | ≤ 100 nM | – |
| C[C@H]1Cn2c(cc(OCc3ccc(Oc4ccc(C#N)c(C(F)(F)F)c4)c(F)c3)nc2=O)N1C [Example E19, (S)-4-(4-(((1,2-dimethyl-5-oxo-1,2,3,5-tetrahydroimidazo[1,2-c]pyrimidin-7-yl)ox-y)methyl)-2-fluorophenoxy)-2-(trifluoromethyl)benzonitrile] | ≤ 1 nM | ≤ 100 nM | – |
| CC1(C)Cn2c(cc(OCc3cc(F)c(Oc4cncc(C(F)(F)F)c4)c(F)c3)nc2=O)N1 [Example E91, 7-((3,5-difluoro-4-((5-(trifluoromethyl)pyridin-3-yl)oxy)benzyl)oxy)-2,2-dimethyl-2,3-dihydroimidazo[1,2-c]pyrimidin-5(1H)-one] | ≤ 1 nM | ≤ 100 nM | – |
| CN1c2cc(OCc3ccc(Oc4cncc(Cl)c4)c(F)c3)nc(=O)n2CC1(C)C [Example E63, 7-((4-((5-chloropyridin-3-yl)oxy)-3-fluorobenzyl)oxy)-1,2,2-trimethyl-2,3-dihydroimidazo[1,2-c]pyrimidin-5(1H)-one] | ≤ 1 nM | ≤ 100 nM | 0.1 nM |
| CC1(C)Cn2c(cc(OCc3cc(F)c(Oc4ccnc(Cl)c4)c(F)c3)nc2=O)N1 [Example E45, 7-((4-((2-chloropyridin-4-yl)oxy)-3,5-difluorobenzyl)oxy)-2,2-dimethyl-2,3-dihydroimidazo[1,2-c]pyrimidin-5(1H)-one] | ≤ 1 nM | ≤ 100 nM | – |
| CN1c2cc(OCc3ccc(Oc4ccc(Cl)nc4)c(F)c3)nc(=O)n2CC1(C)C [Example E12, 7-((4-((6-chloropyridin-3-yl)oxy)-3-fluorobenzyl)oxy)-1,2,2-trimethyl-2,3-dihydroimidazo[1,2-c]pyrimidin-5(1H)-one] | ≤ 1 nM | ≤ 100 nM | 0.0316 nM |
| C[C@@H]1Cn2c(cc(OCc3cc(F)c(F)c(F)c3)nc2=O)N1C [Example E48, (R)-1,2-dimethyl-7-((3,4,5-trifluorobenzyl)oxy)-2,3-dihydroimidazo[1,2-c]pyrimidin-5(1H)-one] | ≤ 10 nM | ≤ 100 nM | – |
| CN1c2cc(OCc3cc(F)c(Oc4ccnc(C(F)(F)F)c4)c(F)c3)nc(=O)n2CC1(C)C [Example E25, 7-((3,5-difluoro-4-((2-(trifluoromethyl)pyridin-4-yl)oxy)benzyl)oxy)-1,2,2-trimethyl-2,3-dihydroimidazo[1,2-c]pyrimidin-(1H)-one] | ≤ 1 nM | ≤ 100 nM | 0.0794 nM |
| CN1c2cc(OCc3ccc(F)cc3F)nc(=O)n2CC1(C)C [Example E77, 7-((2,4-difluorobenzyl)oxy)-1,2,2-trimethyl-2,3-dihydroimidazo[1,2-c]pyrimidin-5(1H)-one] | ≤ 10 nM | ≤ 100 nM | – |
| CN1c2cc(OCc3cc(F)c(F)c(F)c3)nc(=O)n2CC1(C)C [Example E110, 1,2,2-trimethyl-7-((3,4,5-trifluorobenzyl)oxy)-2,3-dihydroimidazo[1,2-c]pyrimidin-5(1H)-one] | ≤ 10 nM | ≤ 100 nM | – |
| C[C@@H]1Cn2c(cc(OCc3ccc(F)c(F)c3)nc2=O)N1C [Example E106, (R)-7-((3,4-difluorobenzyl)oxy)-1,2-dimethyl-2,3-dihydroimidazo[1,2-c]pyrimidin-5(1H)-one] | ≤ 10 nM | ≤ 100 nM | – |
| CCN1c2cc(OCc3cccc(F)c3F)nc(=O)n2CC1(C)C [Example E66, 7-((2,3-difluorobenzyl)oxy)-1-ethyl-2,2-dimethyl-2,3-dihydroimidazo[1,2-c]pyrimidin-5(1H)-one] | ≤ 10 nM | ≤ 100 nM | – |
| CN1c2cc(OCc3cc(F)c(Oc4ccc(Cl)nc4)c(F)c3)nc(=O)n2CC1(C)C [Example E13, 7-((4-((6-chloropyridin-3-yl)oxy)-3,5-difluorobenzyl)oxy)-1,2,2-trimethyl-2,3-dihydroimidazo[1,2-c]pyrimidin-5(1H)-one] | ≤ 1 nM | ≤ 100 nM | 0.0501 nM |
| CC1(C)Cn2c(cc(OCc3cc(F)c(Oc4cncc(Cl)c4)c(F)c3)nc2=O)N1 [Example E128, 7-((4-((5-chloropyridin-3-yl)oxy)-3,5-difluorobenzyl)oxy)-2,2-dimethyl-2,3-dihydroimidazo[1,2-c]pyrimidin-5(1H)-one] | ≤ 1 nM | ≤ 100 nM | – |
| CC1(C)Cn2c(cc(OCc3ccc(Oc4ccnc(F)c4)c(F)c3)nc2=O)N1 [Example E68, 7-((3-fluoro-4-((2-fluoropyridin-4-yl)oxy)benzyl)oxy)-2,2-dimethyl-2,3-dihydroimidazo[1,2-c]pyrimidin-5(1H)-one] | ≤ 1 nM | ≤ 100 nM | – |
| C[C@H]1Cn2c(cc(OCc3ccc(Oc4cncc(C(F)(F)F)c4)c(F)c3)nc2=O)N1C [Example E54, (S)-7-((3-fluoro-4-((5-(trifluoromethyl)pyridin-3-yl)oxy)benzyl)oxy)-1,2-dimethyl-2,3-dihydroimidazo[1,2-c]pyrimidin-5(1H)-one] | ≤ 1 nM | ≤ 100 nM | 0.126 nM |
